Measured values from PMC9865752, “Design and Synthesis of (Z)-2-(Benzylamino)-5-benzylidenethiazol-4(5H)-one Derivatives as Tyrosinase Inhibitors and Their Anti-Melanogenic and Antioxidant Effects” (Molecules, 2023).
Where two headings read alike, the source gives them in different places.

How the values were obtained:
[1] = test system: mushroom tyrosinase; assay: Mushroom tyrosinase inhibition assay; assay type: biochemical; details: for IC50: mean ± SEM of three experiments
Description: As mushroom tyrosinase is commercially available and relatively cheap, it is used as a tool for the identification of novel tyrosinase inhibitors. Here, we examined the tyrosinase inhibitory activities of the 14 BABT derivatives against mushroom tyrosinase in the presence of L-tyrosine or L-dopa as substrates.
Mushroom tyrosinase inhibitory activities of BABT derivatives were determined as described previously, with minor modifications. L-Tyrosine and L-dopa were used as substrates to evaluate the enzyme activity. […] Assay mixtures were incubated at 37 °C for 30 min, and dopachrome amounts synthesized were determined by measuring the optical density of each well at 475 nm using a microplate reader (VersaMax; Molecular Devices, Sunnyvale, CA, USA).

[2] = target: T1, mushroom tyrosinase (Agaricus bisporus, UniProt C7FF04); assay: Kinetic studies of mushroom tyrosinase inhibition (Lineweaver–Burk and Dixon plots); assay type: biochemical; details: substrate L-dopa
T1 construct: purchased
Description: Kinetic studies using Lineweaver–Burk plots were performed using four different concentrations (0, 0.5, 1, and 2 µM) of the test derivatives (7 and 8) and five different concentrations (0.5, 1, 2, 4, and 8 mM for 7, and 1, 2, 4, 8, and 16 mM for 8) of L-dopa.
Lineweaver–Burk plots for 7 and 8 were transformed into the corresponding Dixon plots to determine their inhibition constant (Ki) values for the mushroom tyrosinase–inhibitor complex. […] The Ki values for the mushroom tyrosinase–inhibitor complex were obtained from the x-axis value of each convergence point.
Lineweaver–Burk plots of derivatives 7 and 8 were obtained in the presence of L-dopa as the substrate. Briefly, 20 µL aliquots of mushroom tyrosinase aqueous solution (200 units/mL) were added to each well of a 96-well plate containing 10 µL BABT derivative (7 or 8) DMSO solution (final concentrations: 0, 0.5, 1, and 2 µM) and 170 µL of an aqueous solution containing L-dopa (final concentrations: 1.0, 2.0, 4.0, 8.0, and 16.0 mM) and sodium phosphate buffer (pH 6.5, 17.2 mM). The initial rate of dopachrome formation was determined by examining the changes in absorbance at a wavelength of 475 nm (ΔOD475/min) using a microplate reader (VersaMax; Molecular Devices).

[3] = test system: B16F10 cells; assay: Cell viability (EZ-Cytox assay); assay type: cell-based, murine; details: 0, 1, 2, 5, 10, 20 µM, 72 h
Description: Before these experiments were performed, the influence of these derivatives on cytotoxicity in B16F10 cells was examined to determine their optimal concentration range for B16F10 cell experiments. The cytotoxicity of derivatives 7 and 8 at six concentrations (0, 1, 2, 5, 10, and 20 µM) was assessed using the EZ-Cytox assay.
Cytotoxicity assays in B16F10 cells were performed using the EZ-Cytox solution (EZ-3000, DoGenBio, Seoul, Republic of Korea). Briefly, B16F10 cells were seeded at a density of 1 × 10^4 cells per well and cultured at 37 °C in a 5% CO2 atmosphere for 24 h. […] Then, the EZ-Cytox solution (10 μL aliquot) was added to each well. After 2 h of incubation at 37 °C, the optical density of each well was measured at 450 nm using a microplate reader (VersaMax; Molecular Devices).

[4] = DPPH radical scavenging assay; details: test samples 500 µM; DPPH 0.18 mM; 30 min in the dark
Description: DPPH is a light-sensitive compound containing free radicals. The DPPH assay is one of the most common methods for evaluating the antioxidant activity of a compound. The effects of BABT derivatives on DPPH radical scavenging activities were evaluated using L-ascorbic acid as a positive reference control. DPPH radical scavenging activities were measured after leaving the mixed samples (test samples of 500 µM plus DPPH solution of 0.18 mM) in the dark for 30 min. To determine the radical scavenging activities, the absorbance of the mixed samples was measured at 517 nm.
According to previously described methods, with minor modifications, the DPPH radical scavenging activities of BABT derivatives 1–14 were measured. A DPPH (0.2 mM) and methanol solution (180 µL) was mixed with 20 µL of a DMSO solution containing 5 mM BABT derivative, or with 20 µL of an aqueous solution of 5 mM L-ascorbic acid, in each well of a 96-well plate and kept at ambient temperature in the dark for 30 min. The optical density of each well was measured at 517 nm using a microplate reader (VersaMax; Molecular Devices). L-Ascorbic acid was used as a positive reference control, and the DPPH radical scavenging abilities of BABT derivatives were compared with those of L-ascorbic acid. All experiments were performed independently, thrice.

[5] = test system: tyrosinase; assay: Western blotting of tyrosinase protein expression; assay type: cell-based, murine
Description: We investigated whether, in addition to the direct inhibition of tyrosinase, another inhibitory mechanism of melanogenesis by derivative 8 may be related to the expression of proteins involved in melanogenesis. For the Western blotting experiment, B16F10 cells were treated with α-MSH (1 µM) plus IBMX (200 µM), leading to a 1.7- and 4.9-fold increase in expression levels of melanogenesis-associated proteins tyrosinase and MITF, compared to those in the untreated control (100%) (Figure 13).
B16F10 cells were seeded in a 60 mm dish at a density of 5 × 10^5 cells/mL for 24 h, washed with cold PBS, and harvested. Cytosolic and nuclear fractions of cell lysates were extracted using lysis buffer, as described previously. Protein concentrations in the cell lysates were estimated using the BCA protein assay (Pierce, Rockford, IL, USA). […] The membranes were washed and protein bands detected using the SuperSignal West Pico Chemiluminescence assay kit (Advansta, San Jose, CA, USA) and the Davinch–Chem program (Davinch-K, Seoul, Republic of Korea). Immunoblotting data were quantified using CS Analyzer 3.2 (Densitograph) image analysis software (http://www.attokorea.co.kr, accessed on 21 November 2022).

T1 sequence (C7FF04 1-392): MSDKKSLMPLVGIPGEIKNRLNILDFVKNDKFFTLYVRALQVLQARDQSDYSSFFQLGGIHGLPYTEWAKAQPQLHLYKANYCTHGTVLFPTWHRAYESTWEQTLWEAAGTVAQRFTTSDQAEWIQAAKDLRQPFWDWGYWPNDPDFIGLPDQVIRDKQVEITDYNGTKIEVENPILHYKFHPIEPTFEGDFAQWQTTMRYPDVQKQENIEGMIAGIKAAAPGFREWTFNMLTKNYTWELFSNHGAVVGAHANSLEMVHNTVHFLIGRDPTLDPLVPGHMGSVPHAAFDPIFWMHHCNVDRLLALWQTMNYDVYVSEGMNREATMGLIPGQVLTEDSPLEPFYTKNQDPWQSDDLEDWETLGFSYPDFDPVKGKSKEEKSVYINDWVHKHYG

## O=C1N=C(NCc2ccccc2)S/C1=C\c1ccc(O)cc1O [Compound 8, (Z)-2-(benzylamino)-5-(2,4-dihydroxybenzylidene)thiazol-4(5H)-one]
[1]; L-dopa versus L-tyrosine as substrate
  fold higher IC50 value with L-dopa than with L-tyrosine: 4 fold
[1]; substrate L-dopa, read-out: IC50 (µM) L-Dopa
  IC50: 1.04 ± 0.05 µM
[1]; substrate L-tyrosine
  fold more potent than kojic acid: 106 fold
[1]; substrate L-tyrosine, read-out: IC50 (µM) L-Tyrosine
  IC50: 0.27 ± 0.03 µM
[2]; Dixon plots, read-out: inhibition constant (Ki) for the mushroom tyrosinase–inhibitor complex
  Ki: 810 nM
[2]; Lineweaver–Burk plots
  mode of inhibition: competitive inhibitors
[3]
  cytotoxicity: no cytotoxicity until 72 h at all tested concentrations
[4]
  DPPH radical scavenging activity, % inhibition: 76%
[5]; 10 µM, α-MSH plus IBMX treated B16F10 cells
  relative expression level of tyrosinase protein: lowered the protein expression to the same or lower control levels
[5]; 5, 10 and 20 µM, α-MSH (1 µM) plus IBMX (200 µM) treated B16F10 cells
  relative expression level of tyrosinase protein: significantly reduced the relative expression levels of tyrosinase and MITF in a dose-dependent manner
